Results published in publication PMC6270106, “Chemical Constituents from the Leaves of Annona reticulata and Their Inhibitory Effects on NO Production” (Molecules, 2013).
Like-named read-outs stand apart in the source and are kept apart here.

Key:
[1] = tested on: LPS-induced iNOS-dependent NO production in RAW 264.7 cells; experiment: Inhibition of LPS-induced iNOS-dependent NO production (Griess nitrite assay); format: cell-based, murine; conditions: RAW 264.7, 100 ng/mL LPS, 24 h; for NO level: nitrite by Griess, in µM (unit assumed); for inhibition at 12.5 µM / inhibition at 25 µM / inhibition at 50 µM / IC50 / inhibition at 100 µM: Mus musculus, RAW264.7; for inhibition at 12.5 µM: read-out: NO inhibition (% of control); for inhibition at 25 µM / inhibition at 50 µM / inhibition at 100 µM: read-out: NO inhibition (% of control) (converted)
Description: The isolated compounds 1–9 were subjected into the examination of their effects on LPS-induced iNOS-dependent NO production in RAW 264.7 cells. […] The inhibitory effects of 1, 4 and 9 were less obvious. […] Among the tested compounds, 2, and 5–8 belonged to the ent-kaurane diterpenoids noted for the occurrence in the Annona species.
NO production was indirectly assessed by measuring the nitrite levels in the cultured media and serum determined by a colorimetric method based on the Griess reaction. The cells were incubated with a test sample in the presence of LPS (100 ng/mL) at 37 °C for 24 h. Then, cells were dispensed into 96-well plates, and 100 μL of each supernatant was mixed with the same volume of Griess reagent (1% sulfanilamide, 0.1% naphthyl ethylenediamine dihydrochloride, and 5% phosphoric acid) and incubated at room temperature for 10 min, the absorbance was measured at 540 nm with a Micro-Reader (Molecular Devices). By using sodium nitrite to generate a standard curve, the concentration of nitrite was measured form absorbance at 540 nm.
Experimental results were presented as the mean ± standard deviation (SD) of three parallel measurements. Statistical comparisons were made by Student’s t-test. IC50 values were estimated using a non-linear regression algorithm (SigmaPlot 8.0; SPSS Inc. Chicago, IL, USA). Statistical significance is expressed as * p < 0.05, ** p < 0.01, and *** p < 0.001.

RAW 264.7 cells [2] = tested on: RAW 264.7 cells
Description: (§1) A murine macrophage cell line RAW264.7 (BCRC No. 60001) was purchased from the Bioresources Collection and Research Center (BCRC) of the Food Industry Research and Development Institute (Hsinchu, Taiwan). Cells were cultured in plastic dishes containing Dulbecco’s Modified Eagle Medium (DMEM, Sigma, St. Louis, MO, USA) supplemented with 10% fetal bovine serum (FBS, Sigma, USA) in a CO2 incubator (5% CO2 in air) at 37°C and subcultured every 3 days at a dilution of 1:5 using 0.05% trypsin–0.02% EDTA in Ca^2+-, Mg^2+- free phosphate-buffered saline (DPBS).
(§2) Cells (2 × 10^5) were cultured in 96-well plate containing DMEM supplemented with 10% FBS for 1 day to become nearly confluent. Then cells were cultured with samples in the presence of 100 ng/mL LPS for 24 h. After that, the cells were washed twice with DPBS and incubated with 100 μL of 0.5 mg/mL MTT for 2 h at 37 °C testing for cell viability. The medium was then discarded and 100 μL dimethyl sulfoxide (DMSO) was added. After 30-min incubation, absorbance at 570 nm was read using a microplate reader (Molecular Devices, Sunnyvale, CA, USA).

[3] = tested on: LPS-induced RAW264.7 macrophages; parameters: method as in PMID 21211951; conditions: cited from earlier work
RAW 264.7 cells [4] = experiment: Cell viability (MTT) in the presence of LPS; conditions: RAW 264.7, 100 ng/mL LPS, 24 h; for Cell viability (% of control): MTT; for Cell toxicity (in words): 12.5–100 μM
Description: as §1, §2

macrophages = tested on: macrophages; parameters: method as in PMID 23333629; conditions: by interfering with the activation of TAK1 and Akt, preventing NF-κB activation; cited from earlier work
platelet aggregation = tested on: platelet aggregation; parameters: method as in PMID 12398544; conditions: isolated from the stems of A. squamosa; cited from earlier work

Row | IC50 [1] | Compound | NO level ([1]; 12.5 μM) | NO level ([1]; 25 μM) | inhibition at 12.5 µM ([1]; 12.5 μM) | inhibition at 25 µM ([1]; 25 μM) | Inhibitory effect on NO production (in words) [1] | NO level ([1]; 50 μM) | inhibition at 50 µM ([1]; 50 μM) | Cell viability (% of control) (RAW 264.7 cells [4]; 12.5 μM) | Cell viability (% of control) (RAW 264.7 cells [4]; 25 μM) | Cell viability (% of control) (RAW 264.7 cells [4]; 50 μM) | Cell viability (% of control) (RAW 264.7 cells [4]; 100 μM) | Cell toxicity (in words) (RAW 264.7 cells [4]) | NO level ([1]; 100 μM) | inhibition at 100 µM ([1]; 100 μM) | further results
1 |  | C=C(C)C(CC[C@@H](CO)[C@H]1CC[C@@]2(C)C3CCC4C(C)(C)[C@@H](O)[C@H](O)C[C@@]45C[C@@]35CC[C@]12C)C(C)C (stereo partly shown) [Compound 1, annonaretin A] | 36.6 ± 1.9 | 33.5 ± 0.9 | 19.3 ± 4.2% | 26.2% | less obvious |  |  |  |  |  |  |  |  |  | Cell viability (% of control) (RAW 264.7 cells [2]; 12.5 µM): 88.0 ± 1.5 % of control; Cell viability (% of control) (RAW 264.7 cells [2]; 25 µM): 81.2 ± 1.8 % of control; Cell viability (% of control) (RAW 264.7 cells [2]; 50 µM): 73.0 ± 3.6 % of control; Cell viability (% of control) (RAW 264.7 cells [2]; 100 µM): 66.9 ± 5.5 % of control
2 | 50 ± 0.3 µM | C=C1C[C@@]23CC[C@H]4[C@@](C)(CCC[C@@]4(C)C(=O)O)[C@@H]2CC[C@@H]1C3 [Compound 2, kaurenoic acid] | 34.3 ± 4.7 | 35.1 ± 1.2 | 24.5 ± 10.2% | 22.7% |  | 22.7 ± 0.5 | 50% | 98.0 ± 2.2 % of control | 91.0 ± 3.6 % of control | 82.9 ± 1.2 % of control | 65.7 ± 8.6 % of control | Some cell toxicity was observed |  |  | Inhibition of NO production, prostaglandin E2 release, cyclooxygenase-2 and inducible nitric oxide synthase expression (in words) [3]: inhibit NO production
3 | 99.8 ± 0.4 µM | CC1(C)CC[C@]2(C)CC=C3[C@]4(C)CC[C@H]5C(C)(C)[C@@H](O)CC[C@]5(C)[C@H]4CC[C@@]3(C)[C@@H]2C1 [Compound 3, taraxerol] | 38.5 ± 2.3 | 39.5 ± 0.6 | 15.2 ± 5% | 13.1% |  | 35.6 ± 0.9 | 21.6% | 93.5 ± 1.8 % of control | 92.6 ± 3.1 % of control | 88.7 ± 1.8 % of control | 81.4 ± 2.3 % of control |  | 22.6 ± 0.4 | 50.1% | Expression of proinflammatory mediators (in words) (macrophages): downregulate the expression of proinflammatory mediators
4 |  | CC[C@H](CC[C@@H](C)[C@H]1CC[C@H]2[C@@H]3CC=C4C[C@@H](O)CC[C@]4(C)[C@H]3CC[C@]12C)C(C)C [Compound 4, β-sitosterol] | 38.4 ± 0.7 | 38.6 ± 3.3 | 15.5 ± 1.5% | 15.1% | less obvious |  |  | 82.8 ± 2.7 % of control | 80.7 ± 3.8 % of control | 65.3 ± 2.3 % of control | 55.8 ± 2.7 % of control | Some cell toxicity was observed |  |  | 
5 | 48.6 ± 1.2 µM | C[C@@]12CCC[C@](C)(C=O)C1CCC13CC(CCC12)C(C(=O)O)C3 (stereo partly drawn) [Compound 5, 16α-hydro-19-al-ent-kauran-17-oic acid] | 38.3 ± 1.3 | 33.1 ± 1.0 | 15.5 ± 2.8% | 27.1% |  | 22.1 ± 1.5 | 51.4% | 98.9 ± 5.2 % of control | 96.5 ± 9.2 % of control | 95.9 ± 8.6 % of control | 80.2 ± 5.7 % of control |  | 14.8 ± 0.7 | 67.3% | Anti-platelet aggregation activity (in words) (platelet aggregation): exhibit anti-platelet aggregation activity
6 | 54.5 ± 0.8 µM | C[C@@]12CCC[C@](C)(C(=O)O)C1CCC13CC(CCC12)C(C(=O)O)C3 (stereo partly drawn) [Compound 8, 16α-hydro-ent-kauran-17,19-dioic acid] | 39.8 ± 1.2 | 35.4 ± 0.8 | 12.3 ± 2.6% | 21.9% |  | 23.5 ± 0.9 | 48.2% | 98.4 ± 3.2 % of control | 94.0 ± 2.6 % of control | 88.6 ± 2.6 % of control | 82.4 ± 1.2 % of control |  | 14.4 ± 0.3 | 68.3% | melting point: 120 to 121 °C
7 |  | COc1ccc([C@@H]2CC(=O)c3ccc(OC)cc3O2)cc1 [Compound 9, (2S)-di-O-methylquiritigenin] | 42.0 ± 1.2 | 40.4 ± 0.7 | 7.5 ± 2.7% | 11% | less obvious | 25.9 ± 2.3 | 42.9% | 99.9 ± 4.8 % of control | 90.0 ± 1.6 % of control | 82.6 ± 2.7 % of control | 76.2 ± 1.1 % of control | Some cell toxicity was observed |  |  | 

Row | Compound | IC50 [1] | NO level ([1]; 12.5 μM) | NO level ([1]; 25 μM) | inhibition at 12.5 µM ([1]; 12.5 μM) | inhibition at 25 µM ([1]; 25 μM) | Inhibitory effect on NO production (in words) [1] | NO level ([1]; 50 μM) | inhibition at 50 µM ([1]; 50 μM) | Cell viability (% of control) (RAW 264.7 cells [4]; 12.5 μM) | Cell viability (% of control) (RAW 264.7 cells [4]; 25 μM) | Cell viability (% of control) (RAW 264.7 cells [4]; 50 μM) | Cell viability (% of control) (RAW 264.7 cells [4]; 100 μM) | Cell toxicity (in words) (RAW 264.7 cells [4]) | NO level ([1]; 100 μM) | inhibition at 100 µM ([1]; 100 μM) | further results
8 | CC[C@H](CC[C@@H](C)[C@H]1CC[C@H]2[C@@H]3C[C@@H](O)C4=CC(=O)CC[C@]4(C)[C@H]3CC[C@]12C)C(C)C [Compound 6, 6β-hydroxystigmast-4-en-3-one] | 51.5 ± 0.5 µM | 37.0 ± 1.8 | 33.1 ± 2.4 | 18.5 ± 4% | 27.1% |  | 22.9 ± 1.1 | 49.5% | 94.8 ± 3.1 % of control | 83.7 ± 3.5 % of control | 83.5 ± 3.0 % of control | 81.3 ± 2.8 % of control |  | 15.1 ± 0.3 | 66.7% | 
9 | CC(=O)OCC1CC23CCC4[C@@](C)(CCC[C@]4(C)C(=O)O)C2CCC1C3 (stereo partly drawn) [Compound 7, 17-acetoxy-16β-ent-kauran-19-oic acid] | 55.5 ± 0.3 µM | 42.6 ± 0.7 | 40.6 ± 2.8 | 6.2 ± 1.5% | 10.6% |  | 23.7 ± 0.2 | 47.7% | 98.6 ± 3.1 % of control | 93.6 ± 4.0 % of control | 92.5 ± 2.8 % of control | 83.7 ± 1.6 % of control |  | 14.3 ± 0.3 | 68.5% | 
